Results as given in EPA's ToxValDB 9.5.
Where “and” joins values, the source holds several entries; their conditions need not be identical. Equal values may be shown once.

Legend:
[1] = tested on: Rattus norvegicus; conditions: M/F
[2] = tested on: Rattus norvegicus
[3] = tested on: Rattus norvegicus; conditions: oral
[4] = tested on: Mus musculus
[5] = tested on: Rattus norvegicus; conditions: for NOAEL: M/F
[6] = tested on: Rattus norvegicus; conditions: short-term
[7] = tested on: Rattus norvegicus; conditions: uterotrophic; duration: 2 days; injection; subcutaneous; Active
[8] = tested on: Rattus norvegicus; conditions: for LC50: acute, inhalation; for LOAEL / NOAEL: subchronic, oral
[9] = tested on: Oryctolagus sp.; conditions: acute; dermal; occlusive
[10] = tested on: Mus musculus; conditions: subchronic, duration: 13 weeks, oral, B6C3F1
[11] = reproduction developmental, inhalation, increased liver weight in p1 males
[12] = chronic, duration: 2 years, oral, diet, glomerulonephritis, atrophic testes, eye keratitis reduced body weight and organ weight
[13] = chronic, duration: 2 years, oral, diet, reduced body weight
[14] = subchronic, oral, gavage, liver toxicity
[15] = duration: 3 days, injection, subcutaneous, F, Sprague-Dawley, uterus: absolute blotted uterine weight
[16] = duration: 4 days, oral, gavage, F, Wistar, female reproductive system: vaginal cornification + uterus: uterine wet weight (relative)
[17] = duration: 4 days, oral, gavage, F, Wistar, uterus: uterine dry weight (relative)
[18] = duration: 10 days, oral, gavage, M, BrlHan:WIST, body weight + spontaneous locomotion
[19] = duration: 10 days, oral, gavage, M, BrlHan:WIST, male accessory sex gland: relative bulbourethral gland weight in the presence of TP
[20] = duration: 28 days, oral, gavage, F, Crj:CD, kidney: kidney weight
[21] = duration: 28 days, oral, gavage, F, Crj:CD, liver: liver weight + thymus: serum T3
[22] = duration: 28 days, oral, gavage, M, Crj:CD, body weight + brain: brain weight + food consumption + liver: liver weight + testis: testes weight + thymus: serum T3 + thymus: serum T4 + …
[23] = acute, duration: 1 hours, oral, gavage, M, inhibition of acetic acid-induced writhing response
[24] = reproduction developmental, oral, reduced offspring body weight
[25] = chronic, duration: 2 years, oral, diet, lungs, liver, kidney, thyroid and thyroid hormones
[26] = chronic, duration: 2 years, oral, diet, RBC, ChE inhibition + reduced hemoglobin, hematocrit and RBCs
[27] = chronic, oral, diet, Liver cytomegaly, fatty metamorphosis, angiectasis + thyroid cystic follicles
[28] = subchronic, duration: 90 days, oral, gavage, increased liver weight
[29] = duration: 13 weeks, drinking water, Fischer 344
[30] = duration: 13 weeks, drinking water, Wistar
[31] = duration: 89 days, gavage, Sprague-Dawley

`Clc1ccc(Cl)cc1` [1,4-Dichlorobenzene] was tested, and the LOAEL [1, 11] was 902 mg/m3, the NOAEL [1, 11] was 301 mg/m3 and the NOAEL ([2]; chronic, inhalation, intermittent, Liver: Increased weight in male parents) was 75 mg/m3. The NOEL ([3]; subchronic, duration: 13 weeks, gavage, M/F, Fischer 344, Deaths + Clinical Observation: Tremors Poor motor response Ocular discharge + Body Weight Changes: decrease + Urinalysis: Coproporphyrin …) was < 300 mg/kg-day.
`Cn1cc(-c2ccccc2)c(=O)c(-c2cccc(C(F)(F)F)c2)c1` [1-Methyl-3-phenyl-5-(3-(trifluoromethyl)phenyl)-4-pyridone] gave an LEL [1, 12] of 25 mg/kg-day, an NOEL [1, 12] of 8 mg/kg-day and an NOEL ([2]; chronic, duration: 2 years, oral, diet, Kidney: Glomerulonephritis + Organs: Decreased weight + Testis: Atrophy + Whole body: Decreased weight) of 15.6 mg/kg-day.
`Brc1ccc(Oc2ccc(Br)cc2Br)c(Br)c1` [2,2',4,4'-Tetrabromodiphenyl ether] showed an LOEL ([4]; developmental, oral, M/F, C57BL/6, generation: F1, F1: Morris water maze (swim speed, first trial) + F1: Morris water maze (swim speed, last trial) + F1: Morris water maze (swim speed, middle…) of 1 mg/kg-day, an LOEL ([4]; reproduction developmental, oral, F, C57BL/6, generation: P0, P0: Morris water maze (latency, first trial)) of 0.03 mg/kg-day and an LOAEL ([5]; subchronic, duration: 8 weeks, oral, gavage, M, Sprague-Dawley, reproductive) of 0.001 mg/kg-day.
Work on `CC(C)Nc1nc(Cl)nc(NC(C)C)n1` [2,4-Bis(isopropylamino)-6-chloro-1,3,5-triazine] yielded an LEL [1, 13] of 50 mg/kg-day, an NOEL [1, 13] of 5 mg/kg-day and an NOEL ([2]; chronic, duration: 2 years, oral, diet, Whole body: Decreased weight gain) of 5 mg/kg-day.
With `CCNc1nc(NC(C)C)nc(SC)n1` [Ametryn] the LEL [1, 14] was 100 mg/kg-day, the NOEL [1, 14] was 8.6 mg/kg-day and 10 mg/kg-day and the NOEL ([2]; subchronic, duration: 13 weeks, oral, gavage, Liver: Effects) was 10 mg/kg-day.
For `[Be]` [Beryllium], the NOAEL ([2]; chronic, oral, drinking water, None Observed) was 0.54 mg/kg-day.
With `Oc1ccc(Cc2ccc(O)cc2)cc1` [Bis(4-hydroxyphenyl)methane] the LOEL ([6]; duration: 3 days, injection, subcutaneous, F, Crj:CD, uterus: uterine dry weight (absolute) + uterus: uterine dry weight (relative) + uterus: uterine wet weight (absolute) + uterus: uterine wet …) was 100 mg/kg-day, the LOEL [6, 15] was 200 mg/kg-day and the NOEL [6, 15] was 20 mg/kg-day. It also gave an LOEL [6, 16] of 100 mg/kg-day, an NOEL [6, 16] of 50 mg/kg-day and an LOEL [6, 17] of 200 mg/kg-day. The NOEL [6, 17] was 100 mg/kg-day, the LOEL ([6]; duration: 5 days, injection, subcutaneous, F, Wistar, uterus: uterine dry weight (relative)) was 0.5 mg/day and the LOEL [6, 18] was 1000 mg/kg-day. It also gave an NOEL [6, 18] of 200 mg/kg-day, an NOEL ([6]; duration: 10 days, oral, gavage, M, BrlHan:WIST, body weight in the presence of TP + body weight the absence of TP + male accessory sex gland: relative bulbourethral gland weight in the …) of 1000 mg/kg-day and an NOEL ([6]; duration: 10 days, oral, gavage, M, BrlHan:WIST, male accessory sex gland: BC/LA weight (relative) + male accessory sex gland: Cowper's gland weight (relative) + male accessory sex gland: …) of 1000 mg/kg-day. It also gave an LOEL [6, 19] of 200 mg/kg-day, an NOEL [6, 19] of 50 mg/kg-day and an LOEL ([6]; duration: 28 days, oral, gavage, F, Crj:CD, body weight + brain: brain weight + food consumption + thymus: serum T4) of 20 mg/kg-day. The LOEL [6, 20] was 100 mg/kg-day, the NOEL [6, 20] was 20 mg/kg-day and the LOEL [6, 21] was 500 mg/kg-day. It also gave an NOEL [6, 21] of 100 mg/kg-day, an LOEL [6, 22] of 500 mg/kg-day and an NOEL [6, 22] of 100 mg/kg-day. For the same molecule, the LOEL ([4]; acute, duration: 1 hours, dermal, M, inhibition of arachidonic acid-induced ear edema) was 0.25 mg/ear, the LOEL [4, 23] was 25 mg/kg-day and the NOEL [4, 23] was 12.5 mg/kg-day. For the same molecule, the NOEL ([3]; short-term, duration: 28 days, gavage, F, CD(SD), Clinical Observation: Decreased locomotor activity Soiled fur Soft stool + Body Weight Changes: decrease + Food Consumption: decrease + …) was < 20 mg/kg-day and the NOEL ([3]; short-term, duration: 28 days, gavage, M, CD(SD), Clinical Observation: Decreased locomotor activity Soiled fur Soft stool + Body Weight Changes: decrease + Food Consumption: decrease + …) was 20 mg/kg-day.
`O=C1CCCCCN1` [Caprolactam] was tested, and the LOAEL [1, 24] was 250 mg/kg-day, the NOAEL [1, 24] was 50 mg/kg-day and the NOAEL ([2]; subchronic, duration: 90 days, oral, diet, Kidney: Effects) was 50 mg/kg-day.
Work on `COC(=O)c1c(Cl)c(Cl)c(C(=O)OC)c(Cl)c1Cl` [Chlorthal-dimethyl] yielded an LOAEL [1, 25] of 10 mg/kg-day, an NOAEL [1, 25] of 1 mg/kg-day and an NOAEL ([2]; chronic, duration: 2 years, oral, diet, Kidney: Effects + Liver: Effects + Lung: Effects + Thyroid hormones: Effects + Thyroid: Effects) of 1 mg/kg-day.
`CCOP(=S)(OCC)Oc1cc(Cl)c(SC)cc1Cl` [Chlorthiophos] gave an NOAEL ([2]; chronic, duration: 2 years, oral, diet, None Observed) of 0.08 mg/kg-day.
Work on `CCOP(=S)(OCC)SCCSCC` [Disulfoton] yielded an LEL ([1]; chronic, duration: 2 years, oral, diet, cholinesterase inhibition, optic nerve degeneration) of 0.04 mg/kg-day, an LOAEL ([2]; chronic, duration: 2 years, oral, diet, Blood: Cholinesterase inhibition + Eye: Degeneration) of 0.04 mg/kg-day and an LOAEL ([5]; chronic, duration: 2 years, oral, diet, F, Fischer 344, neurological) of 0.06 mg/kg-day. For the same molecule, the NOAEL ([5]; developmental, duration: 364 days, oral, diet, Sprague-Dawley, neurological, developmental) was 0.009 mg/kg-day, the NOAEL ([5]; short-term, duration: 3 weeks, inhalation, Wistar TNO/W 74 albino, neurological) was 0.1 mg/m3 and the NOAEL ([5]; short-term, duration: 3 weeks, inhalation, chamber, Wistar TNO/W 74 albino, neurological) was 0.1 mg/m3.
For `COP(=S)(OC)Oc1ccc([N+](=O)[O-])cc1` [Methyl parathion], the LEL [1, 26] was 0.25 mg/kg-day, the NOEL [1, 26] was 0.025 mg/kg-day and the NOAEL ([2]; subchronic, duration: 90 days, oral, diet, Erythrocytes: Cholinesterase inhibition) was 0.24 mg/kg-day. For the same molecule, the NOAEL ([5]; chronic, duration: 28 months, oral, diet, Sprague-Dawley, hematological) was 0.025 mg/kg-day and the LOAEL ([5]; subchronic, duration: 13 weeks, oral, gavage, M, Wistar, neurological) was 0.22 mg/kg-day.
With `ClC1(Cl)C2(Cl)C3(Cl)C4(Cl)C(Cl)(Cl)C5(Cl)C3(Cl)C1(Cl)C5(Cl)C24Cl` (stereo not drawn) [Mirex] the LOAEL [1, 27] was 0.7 mg/kg-day, the NOAEL [1, 27] was 0.07 mg/kg-day and the LEL [7] was 1 mg/day. For the same molecule, the NOAEL ([2]; chronic, duration: 2 years, oral, diet, Liver: Angiectasis + Liver: Cytomegaly + Liver: Fatty metamorphosis + Thyroid: Cystic follicles) was 0.07 mg/kg-day and the NOAEL ([5]; chronic, duration: 2 years, oral, diet, Fischer 344, hepatic) was 0.075 mg/kg-day.
For `Oc1ccccc1` [Phenol], the NOAEL ([2]; developmental, oral, gavage, Fetus: Decreased weight) was 60 mg/kg-day.
With `CCOP(=S)(OCC)SCSCC` [Phorate] the NOAEL ([2]; subchronic, duration: 13 weeks, oral, diet, Cholinesterase: Inhibition) was 0.033 mg/kg-day.
For `c1ccncc1` [Pyridine], the LOAEL [1, 28] was 10 mg/kg-day, the NOAEL [1, 28] was 1 mg/kg-day and the LC50 [8] was < 12900 mg/m3. The LC50 ([8]; Crl:CD(SD) BR) was ≥ 15900 mg/m3 and ≤ 19400 mg/m3, the LC50 ([8]; Sprague-Dawley) was 29200 mg/m3 and 29100 mg/m3 and the LOAEL [8, 29] was 38 mg/kg-day. It also gave an NOAEL [8, 29] of 15.2 mg/kg-day, an LOAEL [8, 30] of 38 mg/kg-day and an NOAEL [8, 30] of 15.2 mg/kg-day. The LOAEL ([8]; duration: 13 weeks, gavage, Fischer 344) was 12.5 mg/kg-day, the LOAEL [8, 31] was 10 mg/kg-day and the NOAEL [8, 31] was 1 mg/kg-day. The LD50 [9] was ≥ 1000 mg/kg and ≤ 2000 mg/kg, the LOAEL ([10]; drinking water) was 26.5 mg/kg-day and the NOAEL ([10]; drinking water) was 13.2 mg/kg-day. For the same molecule, the LOAEL ([10]; gavage) was 25 mg/kg-day, the NOAEL ([2]; subchronic, duration: 90 days, oral, gavage, Liver: Increased relative weight + Liver: Increased weight) was 1 mg/kg-day and the NOEL ([3]; subchronic, duration: 13 weeks, water, M/F, Fischer 344, Deaths + Body Weight Changes: decrease + Food Consumption: decrease + Hematology: RBC decrease, Hct decrease, Hgb decrease, Plt increase + …) was < 7.6 mg/kg-day.
In the case of `O=C1C[C@@H]2OCC=C3CN4CC[C@]56c7ccccc7N1[C@H]5[C@H]2[C@H]3C[C@H]46` [Strychnine], the LOAEL ([1]; subchronic, oral, toxicity/histopathology) is reported as 2.5 mg/kg-day and the LOAEL ([2]; short-term, duration: 28 days, oral, gavage, Unspecified: Histopathology + Unspecified: Toxicity) is reported as 2.5 mg/kg-day.
